Data on 10 compounds can be found in publication PMC10487961, “Antiplatelet Effects of Selected Xanthine-Based Adenosine A2A and A2B Receptor Antagonists Determined in Rat Blood” (International Journal of Molecular Sciences, 2023).

For test [1], the system named is platelet aggregation in whole rat blood induced by ADP. The test is described as follows: In vitro whole rat blood aggregation induced with ADP (Multiplate impedance aggregometry). In kind it is cell-based. Particulars: ADP [6.5 μM], concentration inhibiting aggregation of whole rat blood in vitro by 50%. Here is the method: (§1) In further experiments, aggregation was induced with ADP. In this model of aggregation, we tested the selected compounds as well as IBMX as a positive control. […] In vitro aggregation tests were conducted using freshly collected whole rat blood with a Multiplate platelet function analyzer (Roche Diagnostic, Mannheim, Germany), the five-channel aggregometer based on measurements of electric impedance, according to previous procedures. Upon activation, platelets adhere and progressively aggregate on a duplicate metal sensor in the analyzer test cuvette. This leads to a change in resistance, which is proportional to the number of platelets adhering to the electrodes. Blood was drawn from the carotid of rats with hirudin blood tubes (S-Monovette, Hirudin, Sarstedt, Germany). Then, 300 μL of hirudin anticoagulated blood was mixed with 300 μL prewarmed isotonic saline solution containing the studied compound or vehicle (DMSO 0.1%) and preincubated for 3 min at 37 °C with continuous stirring. The agonists (collagen, ADP) were diluted using deionized water. Aggregation was induced by adding collagen (final concentration 1.6 µg/mL) or ADP (final concentration 6.5 µM). […] Activated platelet function was recorded for 6 min. Multiplate software v. V2.05 was used to analyze the area under the curve (AUC) of the clotting process for each measurement and calculate the mean values.

The subject of test [2] is platelet aggregation in whole rat blood induced with collagen. The test is described as follows: In vitro whole rat blood aggregation induced with collagen (Multiplate impedance aggregometry). In kind it is cell-based. Particulars: for IC50: Collagen [1.6 µg/mL], concentration inhibiting aggregation of whole rat blood in vitro by 50%; for Reduction of collagen-induced platelet aggregation: 100 µM compound, whole rat blood, screening (Figure 1); for Reduction of collagen-induced platelet aggregation / Effect on collagen-induced platelet aggregation (in words): collagen 1.6 µg/mL; for Effect on collagen-induced platelet aggregation (in words): screened at 10 µM and 100 µM, whole rat blood (Figure 1). Here is the method:
as §1, with “To evaluate antiplatelet activities of the test compounds, freshly isolated rat whole blood was incubated with compound or vehicle, and the aggregation responses were assessed with a whole blood aggregometer by measuring impedance changes. Platelet” for “In further experiments,”, “collagen. First, compounds were screened for anti-aggregation effects at concentration” for “ADP. In this model”, “10 µM and 100 µM (Figure 1).” for “aggregation, we tested the selected compounds as well as IBMX as a positive control.”

Test [3] deals with T1, human recombinant PDE2A (Homo sapiens, UniProt O00408).
T1 construct: purchased SignalChem
T1 sequence (O00408 whole entry): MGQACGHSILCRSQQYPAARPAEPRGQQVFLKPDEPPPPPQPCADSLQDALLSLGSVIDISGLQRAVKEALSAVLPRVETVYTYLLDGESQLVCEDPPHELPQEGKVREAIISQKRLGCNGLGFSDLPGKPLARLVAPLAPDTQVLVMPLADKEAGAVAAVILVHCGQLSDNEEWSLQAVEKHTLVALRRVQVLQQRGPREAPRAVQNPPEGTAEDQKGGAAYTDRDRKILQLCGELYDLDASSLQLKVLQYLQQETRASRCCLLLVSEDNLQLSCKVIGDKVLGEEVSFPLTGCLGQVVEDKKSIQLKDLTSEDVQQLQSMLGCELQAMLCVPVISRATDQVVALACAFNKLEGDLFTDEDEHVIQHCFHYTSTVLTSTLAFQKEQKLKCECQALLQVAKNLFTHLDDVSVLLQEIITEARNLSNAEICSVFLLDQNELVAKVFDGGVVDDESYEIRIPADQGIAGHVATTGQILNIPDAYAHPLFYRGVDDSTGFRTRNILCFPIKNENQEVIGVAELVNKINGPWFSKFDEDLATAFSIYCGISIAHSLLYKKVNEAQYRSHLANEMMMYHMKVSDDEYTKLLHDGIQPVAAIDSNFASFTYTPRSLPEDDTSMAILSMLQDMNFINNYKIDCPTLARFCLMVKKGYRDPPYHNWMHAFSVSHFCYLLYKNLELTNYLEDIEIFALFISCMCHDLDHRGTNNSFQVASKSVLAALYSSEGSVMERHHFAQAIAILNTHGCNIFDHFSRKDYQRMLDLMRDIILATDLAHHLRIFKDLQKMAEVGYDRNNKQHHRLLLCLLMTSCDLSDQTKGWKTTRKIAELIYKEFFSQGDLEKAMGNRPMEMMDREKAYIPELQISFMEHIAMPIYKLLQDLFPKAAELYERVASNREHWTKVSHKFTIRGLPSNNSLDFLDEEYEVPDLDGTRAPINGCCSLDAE
More on the design: method as in PMID 31705904. Particulars: cited from earlier work.

Test [4] concerns the target T2, human recombinant PDE5A (Homo sapiens, UniProt O76074).
T2 construct: purchased SignalChem
The arrangement: method as in PMID 31705904. The conditions noted are these: cited from earlier work.

For test [5], the target named is hA2BR. The conditions noted are these: human A2B receptor; read-out: Ki ± SEM hA2BR vs. [3H]PSB-603; cited from earlier work.
The target in test [6] is T2, human recombinant PDE5A. Kind of test: PDE-Glo activity inhibition test, PDE5A. Particulars: cGMP substrate, read-out: IC50 (CV%) PDE5A. In kind it is biochemical.
Test [7] addresses hA1R. The conditions noted are these: human A1 receptor; read-out: Ki ± SEM hA1R vs. [3H]CCPA; cited from earlier work.
In test [8] the target is hA2AR. The conditions noted are these: cited from earlier work.
The target in test [9] is T1, human recombinant PDE2A. Kind of test: PDE-Glo activity inhibition test, PDE2A. In kind it is biochemical. The conditions noted are these: cGMP substrate, read-out: IC50 (CV%) PDE2A.
For test [10], the target named is hA3R. The conditions noted are these: human A3 receptor; read-out: Ki ± SEM hA3R vs. [3H]PSB-11; cited from earlier work.
The target in test [11] is T3, human recombinant PDE3A (Homo sapiens, UniProt Q14432).
T3 construct: purchased SignalChem
T3 sequence (Q14432 whole entry): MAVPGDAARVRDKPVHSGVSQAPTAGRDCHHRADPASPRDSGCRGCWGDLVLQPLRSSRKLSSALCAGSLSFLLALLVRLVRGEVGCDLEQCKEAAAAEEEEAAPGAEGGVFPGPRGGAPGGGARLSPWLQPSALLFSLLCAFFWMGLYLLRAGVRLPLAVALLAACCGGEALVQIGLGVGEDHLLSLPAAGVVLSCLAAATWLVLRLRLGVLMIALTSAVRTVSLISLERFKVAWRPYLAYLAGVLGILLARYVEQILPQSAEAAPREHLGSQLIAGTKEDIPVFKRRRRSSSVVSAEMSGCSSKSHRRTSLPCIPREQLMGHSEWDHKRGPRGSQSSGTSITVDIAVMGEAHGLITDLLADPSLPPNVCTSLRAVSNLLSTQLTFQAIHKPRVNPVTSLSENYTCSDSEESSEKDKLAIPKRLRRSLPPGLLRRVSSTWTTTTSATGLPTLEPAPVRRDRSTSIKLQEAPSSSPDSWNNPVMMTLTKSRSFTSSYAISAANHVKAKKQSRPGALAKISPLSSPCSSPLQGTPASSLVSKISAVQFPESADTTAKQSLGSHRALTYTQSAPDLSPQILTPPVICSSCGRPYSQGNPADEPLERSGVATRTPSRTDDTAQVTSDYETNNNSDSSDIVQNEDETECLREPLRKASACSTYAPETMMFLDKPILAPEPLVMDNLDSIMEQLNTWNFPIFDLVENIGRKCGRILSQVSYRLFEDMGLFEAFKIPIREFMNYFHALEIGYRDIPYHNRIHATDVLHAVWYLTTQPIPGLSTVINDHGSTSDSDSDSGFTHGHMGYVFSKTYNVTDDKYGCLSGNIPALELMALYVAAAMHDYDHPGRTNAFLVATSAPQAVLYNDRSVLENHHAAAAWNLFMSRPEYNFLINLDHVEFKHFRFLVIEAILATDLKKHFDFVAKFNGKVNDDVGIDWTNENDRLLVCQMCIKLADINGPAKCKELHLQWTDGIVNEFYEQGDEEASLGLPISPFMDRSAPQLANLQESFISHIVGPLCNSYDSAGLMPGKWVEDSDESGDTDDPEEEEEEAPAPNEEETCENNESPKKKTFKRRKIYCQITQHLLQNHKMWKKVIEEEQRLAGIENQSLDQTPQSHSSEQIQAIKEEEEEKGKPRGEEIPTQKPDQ
Kind of test: PDE-Glo activity inhibition test, PDE3A. In kind it is biochemical. Particulars: for IC50: human recombinant PDE3A, cAMP substrate, read-out: IC50 (CV%) PDE3A.

Test [12] concerns lipid peroxidation in rat brain homogenate. The test is described as follows: In vitro lipid peroxidation (MDA/TBARS test). Here is the method: The lipid peroxidation was measured by the formation of thiobarbituric acid reactive substances (TBARS) in rat brain homogenate, which was made in 0.9% NaCl containing 10 mg tissue per mL [60]. Briefly, rat brain homogenates (1 mL) were incubated at 37 °C for 5 min with 10 µL of a test compound or vehicle. Lipid peroxidation was initiated with the addition of 50 µL of 0.5 mmol/L FeCl2 and 50 µL of 2 mmol/L ascorbic acid. After 30 min of incubation, the reaction was stopped by adding 0.1 mL of 0.2% butylhydroxytoluene. Thiobarbituric acid reagent was then added, and the mixture was heated for 15 min in a boiling water bath. The TBARS was extracted using n-butanol and measured at 532 nm. The amount of TBARS was quantified using a standard curve of malondialdehyde (1,1,3,3-tetraethoxypropane was used as standard).
The compound used to compare the results was carvedilol. Its activity was tested in the concentration range of 10–3000 μM (Figure 8). The reference was the maximum activity of carvedilol at the highest concentration (100%). Test compounds were assayed at concentrations of 100 and 1000 µM. The obtained results were then compared to the activity of the reference compound at identical concentrations (1000 µM).

Like-named read-outs stand apart in the source and are kept apart here.

Regarding `CC(C)Cn1c(=O)n(C)c(=O)c2[nH]cnc21` [IBMX, 1-methyl-3-isobutylxanthine, reference compound], the IC50 in test [1] was 18.5 ± 7.3 µM; in test [2] it was 98.8 ± 29.8 µM; in [2] (Rattus norvegicus, Platelet), around 100 µM; in test [3], 9.22 µM; in [4], 45.1 µM.

For `C#CCn1c(=O)c2c(nc(OCc3ccccc3Br)n2C)n(C)c1=O` [TB-42], the IC50 in test [1] is 58.6 ± 35.6 µM; in test [6] it was 64.5 µM; in [2] (Platelet), 69.3 ± 0.7 µM. Moreover, the Ki in [5] is above 1 µM; in test [7], 0.357 ± 0.049 µM; in test [8], 0.059 ± 0.0102 µM. Moreover, the “Reduction of collagen-induced platelet aggregation” value in test [2] was found to be 56.8%.

In the case of `CCCn1c(=O)[nH]c2nc(-c3ccc(S(=O)(=O)N4CCN(c5ccc(Cl)cc5)CC4)cc3)[nH]c2c1=O` [PSB-603, 1-propyl-8-(4-((4-(4-chlorophenyl)piperazin-1-yl)sulfonyl)phenyl)-1H-purine-2,6(3H,7H)-dione], the IC50 in [1] was 82.9 ± 17 µM; in [9] it was 50.1 µM; in [6], 39.7 µM; in test [2], 98.6 ± 27 µM; in test [2] (Rattus norvegicus, Platelet), around 100 µM; in test [11], above 100 µM. The Ki in test [5] is 0.000553 ± 0.000103 µM; in test [7], above 1 µM; in test [8], above 1 µM; in test [10], above 1 µM. In addition, the “Reduction of collagen-induced platelet aggregation” value in test [2] was 50.4%. Further, the “Prevention of collagen-induced platelet aggregation” value in test [2] (100 µM, highest tested concentration, concentration series (Figure 2)) came out at 54.12%. For the same compound, the “Effect on platelet activity at lower concentrations (in words)” value in test [2] (concentrations below 100 µM, collagen 1.6 µg/mL (Figure 2)) is listed as “did not markedly affect platelet activity”. Further, in test [11] (in the concentrations tested), the “Effect against PDE3A activity (in words)” value is on record as “did not display any detectable effects”.

On to `O=C1CCc2cc(OCCCCc3nnnn3C3CCCCC3)ccc2N1` [Cilostazol, cilostazol, reference compound], for which the IC50 in test [11] came to 0.0545 µM.

In the case of `COc1ccccc1OCCNCC(O)COc1cccc2[nH]c3ccccc3c12` (stereo not shown) [Carvedilol, carvedilol, reference compound], in [12] (carvedilol tested at 10–3000 μM, Figure 8, read-out: EC50 antioxidant action (lipid peroxidation)), the EC50 stood at 68.8 µM.

As for `CC1CCC(N2CCCn3c2nc2c3c(=O)n(C)c(=O)n2C)CC1` (stereo not shown) [KD-64, 1,3-dimethyl-9-(4-methylcyclohexyl)-pyrimido [2,1-f] purine-2,4-dione], the Ki in [5] was above 1 µM; in test [7] it was above 1 µM; in [8] it was 0.24 µM; in test [10], above 1 µM. In addition, the IC50 in test [9] is 27 µM; in test [6], above 100 µM; in test [11], 10.3 µM. For the same compound, the “Effect on collagen-induced platelet aggregation (in words)” value in test [2] is on record as “did not affect platelet aggregation”.

For `CCn1c(=O)c2c(nc(NCc3c(Cl)ccc(OC)c3F)n2C)n(C)c1=O` [MZ-1497, 8-((6-chloro-2-fluoro-3-methoxybenzyl)amino)-1-ethyl-3,7-dimethyl-purine-2,6-dione], the Ki was above 1 µM in test [5], above 1 µM in test [7], 0.0685 ± 0.0155 µM in test [8] and above 1 µM in [10]. For the same compound, in test [6], the IC50 was above 100 µM. The “Effect on collagen-induced platelet aggregation (in words)” value in test [2] was “did not affect platelet aggregation”.

Take “3,7-dimethyl-8-(3-phenylpropoxy)-1-(prop-2-yn-1-yl)--purine-2,6-dione [TB-46]”: the Ki was 0.472 ± 0.174 µM in test [5], 0.158 ± 0.012 µM in test [7], 0.0191 ± 0.0023 µM in [8] and above 1 µM in test [10]. For the same compound, the IC50 in test [9] was 9.85 µM; in [6], 68.6 µM; in [11], 0.58 µM. Also, in test [12] (concentration 10 times lower than 1000 µM), the “Antioxidant activity at a concentration 10 times lower (in words)” value was “practically disappeared”. In addition, in [2], the “Effect on collagen-induced platelet aggregation (in words)” value was “did not affect platelet aggregation”.

`CCCCCC[C@@H]([C@@H](C)O)n1cnc2c(N)ncnc21` (racemic) [EHNA, erythro-9-(2-hydroxy-3-nonyl)adenine, reference compound]: the IC50 in [9] worked out at 8.22 µM.

Consider `CCCCn1c(=O)[nH]c2nc(-c3ccc(S(=O)(=O)N4CCN(c5ccc(Cl)cc5)CC4)cc3)[nH]c2c1=O` [PSB-23066, 1-butyl-8-(4-((4-(4-chlorophenyl)piperazin-1-yl)sulfonyl)phenyl)-1H-purine-2,6(3H,7H)-dione], for which the Ki was 0.000401 ± 0.000136 µM in [5], above 1 µM in [7], above 1 µM in test [8] and above 1 µM in [10]. Besides, the IC50 in test [6] was 45.8 µM. Moreover, the “Effect on collagen-induced platelet aggregation (in words)” value in test [2] is “did not affect platelet aggregation”.

In general, IC50 refers to the concentration that gives 50% inhibition. By Ki is commonly meant the dissociation constant of the complex between target and ligand, obtained from inhibition or displacement. Broadly, the EC50 is the concentration that produces a half-maximal response.
